Laboratory results as given in patent US10590121B2, “Kinase inhibitors and methods for making and using” (Rigel Pharmaceuticals, Inc., priority 2017, dated 2020).

Columns and labels:
[1] = tested on: LPS induced IL-23 (p19/p40) in DC cells differentiated from human PBMC; test: IL23-p19 ELISA, dendritic cells (DC differentiated from human PBMC), IFNγ primed, LPS stimulated; type: cell-based; conditions: human PBMC-derived dendritic cells, 1 μg/ml LPS, 18 hours, 10 pt
Method: Compound Screening Using DC Cells
1. Differentiation of PBMC's to DC Cells:
Human PBMC cells (400 million) obtained from the vendor were transferred into a T-175 flask containing 15 ml RPMI media (10% FBS) and incubate for 2 hours at 37° C. After 2 hours, the media including floating cells was aspirated out carefully and 12 ml of fresh RPMI media (10% FBS) containing GMCSF (100 ng/ml) and IL4 (20 ng/ml) was added, and the flask was kept in a 37° C. incubator for 7 days.
After 3 days, fresh GMCSF (100 ng/ml) and IL4 (20 ng/ml) were added to the flask and the incubation continued. After 7 days, the fully differentiated cells were harvested by spinning down (1200 rpm/5 min) and aspirating the media. The cells were suspended in fresh RPMI media (10% FBS) containing 50 ng/ml IFNγ (1000 U/ml) and then plated (50K/well in 100 μl) onto a white clear bottom 96 well plate and left in a 37° C. incubator for 24 hours.
2. Addition of Compounds:
After 24 hours incubation, 100 μl of RPMI media was added containing 2× concentrated test compound per well to the above cell-culture media (final concentration becomes 1×) and the plates were pre-incubated for 1 hour at 37° C. before stimulating with LPS.
After 1 hour compound pre-incubation, 10 μl per well of 20× concentrated LPS solution in RPMI media was added to give a final concentration of 1 μg/ml. The mixture was shaken and incubated the plates at 37° C. for an additional 18 hours.
155 μl of the supernatant was harvested from each well carefully (without the tip touching the bottom of the well) and to the remaining 50 μl/well of the cell culture plate was added 50 μl of Cell Titer Glo reagent. The mixture was incubated for 1-2 minutes on a shaker and the plate was read for luminescence intensity to determine the compound cytotoxicity. The cell culture supernatant collected above was used to carry out IL23 ELISA (65 μl-Supernatant) and IL10 ELISA (90 μl-Supernatant) as described below.
Human IL-23 (p19/p40) ELISA Protocol (e-Biosciences)
To 10.5 ml PBS add 50 μl of anti-IL23 (p19) was added capture antibody (2.5 μg/ml). The mixture was mixed well and 100 μl of the coating solution was added to each well of the 96 well white plates from Pierce. The wells were covered and incubated overnight at 4° C.
The anti-IL23 (p19)-antibody-coated plates were washed 2× using TBST (use plate washer) and blocked using 200 μl of 0.5% Casein for 1.5-2 hours at room temperature with shaking.
The plates were washed 2× using TBST and the supernatant was transferred (65 μl/well) to the above pre-blocked/IL23 (p19)-antibody-coated 96 well plate, and incubated at room temperature for 1.5 hours with shaking.
The plates were washed 4× using TBST (plate washer) and 100 μl/well detection antibody solution prepared from 2 μl of biotin labeled anti-IL-12 (p40/p70) antibody in 11 ml 1% BSA/PBS solution (1-5000 dilution) was added. The plates were incubated for 1 hour with shaking at room temperature.
Again, the plates were washed 4× with TBST and 100 μl of HRP labeled Streptavidin (R&D Systems) solution (10 μl/10 ml 1% BSA solution) was added, and the plates were incubated at room temperature for another 45 minutes with shaking.
After 45 minutes, the plates were washed with TBST 4× and 100 ul/well Super Signal ELISA Pico Chemiluminescent Substrate from Pierce (3.5 ml A+3.5 ml B+3.5 ml MQ water) was added. The plates were shaken for 1-2 minutes then read on a plate reader.

[2] = tested on: LPS induced IL23p19 in THP-1 cells; test: LPS Induced IL23p19 in THP-1 Cells (with IFNγ Primed) Assay; type: cell-based; conditions: Homo sapiens; THP-1 cells primed with IFNγ 50 ng/mL, 1 μg/mL LPS, 18 hours, 10 pt; read-out: IL23-p19 ELISA, THP1-IFNy, LPS, 10 pt EC50
From the text: LPS Induced IL23p19 in THP-1 Cells (with IFNγ Primed) Assay
THP-1 Cells (ATCC, Cat # TIB-202), Dimethyl Sulfoxide (DMSO) (Sigma-Aldrich, Cat # D2650), RPMI 1640 (Cellgro, Cat #10-040-CM), Fetal Bovine Serum (Sigma, Cat # F4135), Albumin From Bovine Serum (BSA) (Sigma-Aldrich, Cat # A7906), LPS (Serotype K-235, Sigma, Product Number L 2143), IFNγ (Peprotech, Cat #300-02), Capture antibody: Human IL-23p19 ELISA (e-Bioscience, Cat. #14-7238-85), Detection antibody: Primary Mouse Biotinylated anti-human IL-12 (p40/p70) (e-Bioscience, Cat. #13-7129-85), Secondary HRP-conjugated Streptavidin (R&D Systems, Cat # DY998), 1×PBST Washing Buffer (PBS-Tween tablet) (VWR International, Cat #80058-558), ELISA Blocking Buffer (PBS with 1% BSA), ELISA Dilution Buffer (PBS with 1% BSA), 384 Well Flat-Bottom, MaxiSorp Black Immuno Plates (Thermo Scientific, Cat #12-565-346), 384 Well Flat-Bottom, White Tissue Culture Plates (Thermo Scientific, Cat #12-565-343), Super Signal ELISA Pico Chemiluminescent Substrate (Thermo Scientific, Cat #37070), Cell Titer Glo reagent (Promega, Cat # G7573), Positive control, IKK2VI inhibitor (Calbiochem, Cat #401483), AquaMax 4000 plate washer (Molecular Devices), Luminometer, Wallac Victor2 1420 Multilabel Counter.
On day 1, 50K/well THP-1 cells were seeded and primed with IFNγ (50 ng/mL) in 384-well plates for about 18 hours in RPMI media with 10% FBS. On day 2, the compound was serially diluted in DMSO from 5 mM in 3-fold dilutions, and then diluted 1:125 in RPMI media with 10% FBS. 50 μL/well 2× compound was added to 50 μL/well THP-1 cells (with IFNγ primed) in duplicate in 384 well tissue culture plates. The cells were pre-incubated with compound for 1 hour at 37° C., 5% CO2 before addition of 10 μL/well 11×LPS to give a final concentration of 1 μg/mL LPS. Day 3, after stimulation for 18 hours at 37° C., 5% CO2, the assay plate was centrifuged and 70 μL/well supernatant was harvested. IL-23p19 protein in 70 μL/well of supernatant was measured by sandwich ELISA, and 25 μl/well Cell Titer Glo reagent was added to the remaining cells to measure compound toxicity.
Human IL-23p19 Sandwich ELISA:
Maxisorp immuno ELISA plates were pre-coated with 25 μL/well of anti-IL-23p19 capture antibody (2.5 ug/mL) in PBS overnight at room temperature. After washing with 1×PBST, the plates were blocked using 100 μL/well of 1% BSA in PBS for 2 hours at room temperature. The plates were washed three times with 1×PBST and 70 μL/well supernatant were added. The plates were incubated at room temperature for 2 hours with shaking and washed three times with 1×PBST. 25 μL/well of biotin labeled anti-IL-12 (p40/p70) detection antibody (100 ng/mL) in PBS with 1% BSA was added and the plates were incubated at room temperature for 2 hours with shaking. After washing three times with 1×PBST, 25 μL/well of streptavidin-HRP (1:200) in PBS with 1% BSA was added and the plates were incubated at room temperature for 20 minutes with shaking. The plates were washed three times with 1×PBST and 25 μL/well of Super Signal ELISA Pico Chemiluminescent Substrate were added. The plates were read with a luminometer, and the chemiluminescence values were entered into Athena (Rigel) for curve fitting, EC50 calculation, and database storage.

Structure (SMILES)	EC50 [2] [nM]	EC50 [1] [nM]
O=C(Nc1cc(CCN2CCOCC2)c(F)cc1N1CCCCC1)c1ccc(-c2cn[nH]c2)o1 [I-31, N-(4-fluoro-5-(2-morpholinoethyl)-2-(piperidin-1-yl)phenyl)-5-(1H-pyrazol-4-yl)furan-2-carboxamide]	17200	63.8
O=C(Nc1cc(C(F)(F)CN2CCOCC2)ccc1N1CCCCC1)c1ccc(-c2cn[nH]c2)o1 [I-34, N-(5-(1,1-difluoro-2-morpholinoethyl)-2-(piperidin-1-yl)phenyl)-5-(1H-pyrazol-4-yl)furan-2-carboxamide]	1540	6620
O=C(Nc1cc(C(F)(F)CN2CCOCC2)ccc1N1CCCCC1)c1csc(-c2cn[nH]c2)n1 [I-35, N-(5-(1,1-difluoro-2-morpholinoethyl)-2-(piperidin-1-yl)phenyl)-2-(1H-pyrazol-4-yl)thiazole-4-carboxamide]	1080	2600
O=C(Nc1ccc(N2CCOCC2)cc1N1CCCCC1)c1cccc(-c2cn[nH]c2)n1 [I-36, N-(4-morpholino-2-(piperidin-1-yl)phenyl)-6-(1H-pyrazol-4-yl)picolinamide]	2720	1300
O=C(Nc1ccc(N2CCOCC2)cc1N1CCCCC1)c1csc(-c2cn[nH]c2)n1 [I-38, N-(4-morpholino-2-(piperidin-1-yl)phenyl)-2-(1H-pyrazol-4-yl)thiazole-4-carboxamide]	31000	3980
COc1ccc(N2CCOCC2)cc1NC(=O)c1cccc(-c2cn[nH]c2)n1 [I-39, N-(2-methoxy-5-morpholinophenyl)-6-(1H-pyrazol-4-yl)picolinamide]	6590	3230
COc1ccc(N2CCOCC2)cc1NC(=O)c1csc(-c2cn[nH]c2)n1 [I-41, N-(2-methoxy-5-morpholinophenyl)-2-(1H-pyrazol-4-yl)thiazole-4-carboxamide]	3920	9220
O=C(Nc1cnc(N2CCOCC2)cc1N1CCCCC1)c1cccc(-c2cn[nH]c2)n1 [I-42, N-(6-morpholino-4-(piperidin-1-yl)pyridin-3-yl)-6-(1H-pyrazol-4-yl)picolinamide]	1040	3080
O=C(Nc1cnc(N2CCOCC2)cc1N1CCCCC1)c1ccc(-c2cn[nH]c2)o1 [I-43, N-(6-morpholino-4-(piperidin-1-yl)pyridin-3-yl)-5-(1H-pyrazol-4-yl)furan-2-carboxamide]	2690	3450
O=C(Nc1ccc(C(=O)N2CCOCC2)cc1N1CCCCC1)c1ccc(-c2cn[nH]c2)o1 [I-46, N-(4-(morpholine-4-carbonyl)-2-(piperidin-1-yl)phenyl)-5-(1H-pyrazol-4-yl)furan-2-carboxamide]	1360	2660

The next compounds have a lower EC50 [2] than those just listed; values first:

EC50 [2] [nM]	Structure (SMILES)	EC50 [1] [nM]
173	O=C(Nc1cc(CCN2CCOCC2)c(F)cc1N1CCCCC1)c1csc(-c2cn[nH]c2)n1 [I-32, N-(4-fluoro-5-(2-morpholinoethyl)-2-(piperidin-1-yl)phenyl)-2-(1H-pyrazol-4-yl)thiazole-4-carboxamide]	324
262	O=C(Nc1ccc(N2CCOCC2)cc1N1CCCCC1)c1ccc(-c2cn[nH]c2)o1 [I-37, N-(4-morpholino-2-(piperidin-1-yl)phenyl)-5-(1H-pyrazol-4-yl)furan-2-carboxamide]	153
222	O=C(Nc1cnc(N2CCOCC2)cc1N1CCCCC1)c1csc(-c2cn[nH]c2)n1 [I-44, N-(6-morpholino-4-(piperidin-1-yl)pyridin-3-yl)-2-(1H-pyrazol-4-yl)thiazole-4-carboxamide]	229
117	O=C(Nc1ccc(C(=O)N2CCOCC2)cc1N1CCCCC1)c1cccc(-c2cn[nH]c2)n1 [I-45, N-(4-(morpholine-4-carbonyl)-2-(piperidin-1-yl)phenyl)-6-(1H-pyrazol-4-yl)picolinamide]	84
